Test results: EP0429987B1, “5,11-Dihydro-6H-dipyrido[3,2-b:2',3'-e] [1,4]diazepines and their use in the prevention or treatment of HIV infection” (priority 1989, dated 1991)

Experiments:
[1] = system: HTLV-IIIB strain of HIV-1; assay: Human T-Cell Culture Assay: inhibition of syncytia formation in c8166 cells; assay type: cell-based; details: Human immunodeficiency virus 1, IIIB, 96 h, four days after virus challenge
Experimental: In order to confirm that compounds which are active in the RT Assay also have the ability to inhibit HIV replication in a living system, compounds according to the invention were also tested in the human T-Cell Culture Assay described below.
Assay Theory: Formation of syncytia is a feature of in vitro cultures of CD4+ T-cells infected with HIV-1. In this assay, T-cells are treated with a putative replication inhibiting compound and then infected with HIV-1. After incubation, the culture is checked for the formation of syncytia. The absence or reduction in the number of syncytia is used as a measure of the test compound's ability to inhibit HIV replication.
Assay Method: The target cells, designated c8166, are a sub-clone of human lymphoma cells of T-cell origin and are established at an initial density of 5x10^4 per 100 ul in RPMI 1640 (+ 10% fetal bovine serum) culture medium in 96 well flat bottom plates. A selected amount of test compound, dissolved in DMSO, is included. After 24 hours, 50-100 TCID50's (the dose that results in induced effect in 50% of test cultures) of the HTLV-IIIB strain of HIV-1 (2) are inoculated into each culture. Control cultures receive compound or virus only. Four days after virus challenge, cultures are visually examined for the frequency and distribution of virus-induced giant cell syncytia. The percent inhibition by the test compound is determined by comparison with control values. Confirmation of the presence or absence of virus replication is accomplished by harvesting the cell free culture fluids from all experimental groups to determine the presence or absence of infectious progeny through the induction of syncytia formation in secondary human T-cell cultures after 3 days.

HIV-1 RT = target: T1, HIV-1 RT (Human immunodeficiency virus type 1 group M subtype B, UniProt P03367); assay: Reverse Transcriptase (RT) Assay: inhibition of RNA-dependent DNA polymerase activity; assay type: biochemical; details: for inhibition at 10 µg/mL: read-out: RT Assay % inhibition @ 10 µg/ml; for inhibition at 1.25 µM: @ 1.25µM (footnote +)
T1 construct: Reverse transcriptase enzyme from the LAV strain of Human Immunodeficiency Virus (HIV-1) (1) was isolated; made in house; host or cells: E. coli JM109, clone pBRTprtl+ in vector pIBI21 (lac promoter, IPTG induction)
Text: Utilizing the Reverse Transcriptase (RT) Assay described below, compounds can be tested for their ability to inhibit the RNA-dependent DNA polymerase activity of HIV-1 RT.
Among the enzymes for which Human Immunodeficiency Virus (HIV-1) encodes is a reverse transcriptase (1), so-named because it transcribes a DNA copy from an RNA template. This activity can be quantitatively measured in a cell-free enzyme assay, which has been previously described (2), and is based upon the observation that reverse transcriptase is able to use a synthetic template [poly r(C) primed with oligo d(G)] to transcribe a radio-labelled, acid-precipitable DNA strand utilizing ^3H-dGTP as a substrate.
Reverse transcriptase enzyme from the LAV strain of Human Immunodeficiency Virus (HIV-1) (1) was isolated from the bacterial strain JM109 (3) expressing the DNA clone pBRTprtl+ (2) which is under the control of the lac promotor in the expression vector pIBI21 (4). An overnight culture grown in 2XYT medium (37°C, 225 rpm) (5) supplemented with 100 µg/ml ampicillin for positive selection is inoculated at a 1:40 dilution into M9 medium supplemented with 10µg/ml thiamine, 0.5% casamino acids, and 50 µg/ml ampicillin (5). The culture is incubated (37°C, 225 rpm) until it reaches an OD540 of 0.3-0.4. At that time the repressor inhibitor IPTG (isopropyl β-D-thiogalactopyranoside) is added to 0.5mM, and the mixture is incubated for 2 additional hours. Bacteria are pelleted, resuspended in a 50mM Tris, 0.6mM EDTA, 0.375M NaCl buffer and digested by the addition of lysozyme (1mg/ml) for 30 minutes on ice. The cells are lysed by the addition of 0.2% NP-40 and brought to 1M NaCl.
After removal of the insoluble debris by centrifugation, the protein is precipitated by the addition of 3 volumes of saturated aqueous ammonium sulfate. The enzyme is pelleted, resuspended in RT buffer (50mM Tris pH 7.5, 1mM EDTA, 5mM DTT, 0.1% NP-40, 0.1M NaCl, and 50% glycerol), and stored at -70°C for further use.
The 2X concentrated stock reaction mixture is aliquoted and stored at -20°C. […] This enzyme assay has been adapted to a 96 well microtiter plate system, and has been previously described (6). Tris buffer (50 mM, pH 7.4), vehicle (solvent diluted to match the compound dilution), or compounds in vehicle are dispensed into 96-well microtiter plates (10µl/well; 3 wells/ compound). The HIV-1 RT enzyme is thawed, diluted in 50mM Tris pH 7.4 so that fifteen µl of diluted enzyme contain 0.001 Unit (one unit is that amount of enzyme to transform 1 micromole of substrate per minute at 25°C), and fifteen µl are dispensed per well. Twenty µl of 0.12-0.5M EDTA are added to the first three wells of the microtiter plate. EDTA chelates the Mg^++ present and prevents reverse transcription. This group serves as background polymerization which is subtracted from all other groups. Twenty-five µl of the 2X reaction mixture are added to all wells and the assay is allowed to incubate at room temperature for 60 minutes. The assay is terminated by precipitating the DNA in each well with 50µl of 10% trichloracetic acid (TCA) (10% w/v) in sodium pyrophosphate (1% w/v). The microtiter plate is incubated for 15 minutes at 4°C and the precipitate is fixed onto #30 glass fiber paper (Schleicher & Schuell) using a Skatron semi-automatic harvester. The filters are then washed with additional TCA (5%) containing sodium pyrophosphate (1%), rinsed with aqueous ethanol (70%), dried, and transferred to scintillation vials (6). Each vial receives 2 mls of scintillation cocktail and is counted in a Beckman beta counter.
The calculation for percent inhibition is as follows: %inhibition =(CPM Mean Test Value - CPM Mean Control Value X100)/(CPM Mean Control Value) [formula]

[2] = MTT Assay for Cellular Cytotoxicity; details: human, h9 cells
Experimental: In order to roughly assess the cytotoxicity of the compounds provided by the invention, several such compounds were tested in the MTT Cellular Cytotoxicity Assay described below.
The MTT [3-(4,5-dimethylthiazol-2-yl)-2,5 diphenyl tetrazolium bromide) assay is based on cleavage of tetrazolium bromide by metabolically active cells, resulting in a highly quantitative blue color. This assay has been previously described (1) but has been optimized for the purposes of the testing reported herein.
The H9 cell line (2), an established human lymphoma suspension cell line grown in RPMI 1640 supplemented with 10% fetal bovine serum, is used as the target cell line in the assay. Cells (100 µl) are plated in microtest plate wells at a concentration of 10^5 cells per ml in the presence of varying concentrations of inhibitor. The cells are incubated at 37°C in a humidified CO2 incubator. Five days later, 20µl of MTT (5mg/ml in RPMI 1640, sonicated, 0.2 micron filtered, and stored at 4°C) is added to each well. After 4 hours additional incubation at 37°C, 60µl of Triton-X is added to each well and thoroughly mixed to aid the solubilization of the crystals. Absolute ethanol (5µl) is added to each well and the resulting mixture is incubated for 30 minutes at 60°C and immediately read on a plate reader (Dynatech) at a wavelength of 570nm.
Data from this assay are used to generate a nonlinear regression analysis which yields an EC50.

Compound | inhibition at 10 µg/mL (HIV-1 RT) [%] | inhibition at 1.25 µM (HIV-1 RT) [%] | inhibition at 3 µg/mL [1] [%] | CC50 at 120 h [2] [µM] | RT Assay % inhibition @ 10 µg/ml (HIV-1 RT; @ 10 µg/ml) [%]
CCN1c2ncccc2C(=O)Nc2c(C)ccnc21 [Example 2, 5,11-Dihydro-11-ethyl-4-methyl-6H-dipyrido-[3,2-b:2',3'-e][1,4]diazepin-6-one] | 100 |  | 100 | 200 | 
Cc1ccnc2c1NC(=O)c1cccnc1N2C1CC1 [Example 3, 11-Cyclopropyl-5,11-dihydro-4-methyl-6H-dipyrido[3,2-b:2',3'-e][1,4]diazepin-6-one] |  |  | 100 | 250 | 100
CCN1c2ncccc2NC(=O)c2cccnc21 [Example 14] | 99 |  | 100 |  | 

More lines, main results first:

inhibition at 10 µg/mL (HIV-1 RT) [%] | inhibition at 1.25 µM (HIV-1 RT) [%] | Compound | inhibition at 3 µg/mL [1] [%] | CC50 at 120 h [2] [µM] | RT Assay % inhibition @ 10 µg/ml (HIV-1 RT; @ 10 µg/ml) [%]
 | 91 | CCN1c2ncccc2C(=O)N(C)c2ccc(N3CCCC3)nc21 [Example 6, 5,11-Dihydro-11-ethyl-5-methyl-2-(N-pyrrolidino)-6H-dipyrido[3,2-b:2',3'-e][1,4]diazepin-6-one] | 100 | 45 | 
 | 96 | CCN1c2ncccc2C(=O)Nc2c(C)cc(OC)nc21 [Example 7, 5,11-Dihydro-11-ethyl-2-methoxy-4-methyl-6H-dipyrido[3,2-b:2',3'-e][1,4]diazepin-6-one] | 100 | 350 | 
100 |  | CN1C(=O)c2cccnc2N(C2CC2)c2ncccc21 [Example 47] | 100 |  | 
